Assay results as given in patent publication US20150164895A1, “DETERMINING SENSITIVITY OF CELLS TO B-RAF INHIBITOR TREATMENT BY DETECTING KRAS MUTATION AND RTK EXPRESSION LEVELS” (GENENTECH, INC., priority 2009, published 2015).
Values joined by “and” are separate entries in the source; they are usually repeats but may differ in a detail not shown here. Equal values may be shown once.

Columns and labels:
[1] = system: pERK in BRAF V600E cells expressing EGFR; assay: pERK MSD assay, basal and EGF-stimulated; assay type: cell-based; settings: serum starved, -EGF or +EGF
Protocol: (A) Table of genotype and EGFR levels among lines tested. (B) Measurement of basal and stimulated pERK levels: cells were treated with […] compound in serum free media for 1 hour. For stimulation 20 ng/ml EGF was added for 5 min before cells were lysed. Lysates were transferred to an MSD plate where phospho- and total ERK levels were measured. (C) pERK IC50 data are plotted for the two Raf inhibitors (CHR-265, 1-methyl-5-[[2-[5-(trifluoromethyl)-1H-imidazol-2-yl]-4-pyridinyl]oxy]-N-[4-(trifluoromethyl)phenyl]-1H-Benzimidazol-2-amine and GDC-0879) under basal and EGF-stimulated conditions.
FIG. 29 summarizes certain RAF inhibitor (GDC-0879, PLX-4720 and “Raf inh a” which is 2,6-difluoro-N-(3-methoxy-1H-pyrazolo[3,4-b]pyridin-5-yl)-3-(propylsulfonamido)benzamide) potencies for blocking cellular pERK induction in response to EGF stimulation.

[2] = system: pMEK levels in non-B-Raf^V600E lines; assay: pMEK levels / Raf/MEK/ERK pathway induction by Raf inhibitors; assay type: cell-based
[3] = system: LXFA 983/9N4 (Lung, adeno); assay: Oncotest Exp H331: growth of LXFA 983 lung tumor xenograft after dosing with B-RAF inhibitor; assay type: in vivo, mice; settings: H331-2, 100 mg/kg/day, Days 0-21; for Absolute body weight, Median / Relative body weight, Median / Absolute tumor volume: (a*b*b)/2, Median / Relative tumor volume, Median: group median; for Absolute body weight, Median / Relative body weight, Median: n 10; for Absolute tumor volume: (a*b*b)/2, Median / Relative tumor volume, Median: n 15; for Relative tumor volume / Absolute tumor volume: (a*b*b)/2: individual tumors
From the text: FIGS. 10-18 depict growth in lung tumor xenografts after dosing with GDC-0879.
The data are shown below, and in FIGS. 10-14 for Experiment H331 and FIGS. 15-18 for Experiment H327.

[4] = system: WT Raf isoforms; assay: Biochemical enzyme assay at physiological [ATP]
From the text: FIG. 1 depicts Biochemical enzyme assay data.

[5] = system: C-RAF in A375 (B-RAFV600E) cells transfected with KRASG12D; assay: C-RAF immunoprecipitation: kinase activity and B-RAF heterodimerization; assay type: cell-based; set-up: dose or concentration left out as unconfirmed; settings: A375 transfected with mutant KRASG12D; dosed at 0.1, 1
Protocol: FIGS. 20A, B, C and D depict the importance of the role of active Ras plays in C-RAF activation and phospho-MEK induction by RAF inhibitors. (A) A375 (B-RAFV600E) cells were treated with GDC-0879 or PLX4720 for 1 hour and lysed in hypotonic buffer for membrane fractionation. Both membrane (P100) and cytosolic (S100) fractions were immunoblotted with the indicated antibodies. (B) MeWo cells were transiently transfected with KRASWT or KRASSI7N, treated with GDC-0879 or PLX4720 (at […]) for 1 hour and fractionated into membrane (P100) and cytosolic (S100) fractions. Aliquots of the membrane and cytosolic fractions were immunoblotted with anti-phospho- and anti-total MEK antibodies. (C) RAS-GTP levels were measured from lysates of MeWo (RAS/RAFWT), A375 (B-RAFV600E) and H2122 (KRASMT) cells with a Ras-GTP ELISA protocol using immobilized C-RAF-RBD as bait for capturing RAS-GTP. Relative luminescent units represent RAS detection of an anti-RAS antibody bound to the RBD. RAS-GTP H2122>>Mewo>A375. […] C-RAF was immunoprecipitated from control and inhibitor-treated cells and assayed for protein activity and B-RAF heterodimerization. Total C-RAF levels shown by WB in the immunoprecipitate indicate loading for each lane.

[6] = study day 3, individual animals, listed as G-026887
[7] = study day 3, listed as G-026887
[8] = study day 7, individual animals, listed as G-026887
[9] = study day 7, listed as G-026887
[10] = study day 10, individual animals, listed as G-026887
[11] = study day 10, listed as G-026887
[12] = study day 14, individual animals, listed as G-026887
[13] = study day 14, listed as G-026887
[14] = study day 17, individual animals, listed as G-026887
[15] = study day 17, listed as G-026887
[16] = study day 21, individual animals, listed as G-026887
[17] = study day 21, listed as G-026887

Compound: OCCn1cc(-c2ccc3c(c2)CC/C3=N\O)c(-c2ccncc2)n1 [GDC-0879, 2-{4-[(1E)-1-(hydroxyimino)-2,3-dihydro-1H-inden-5-yl]-3-(pyridine-4-yl)-1H-pyrazol-1-yl}ethan-1-ol]
- blocking wildtype RAF signaling / selectivity (pERK induction in response to EGF) [1]: can more efficiently block wildtype RAF signaling
- effect on pMEK levels ([2]; after serum stimulation): Inhibitory effects of GDC-0879 predominate
- effect on pMEK levels / c-Raf ([2]; basal conditions): bell-shaped curve
- Survival time ([3]; individual animals, listed as G-026887): >22 days (6×) and >21 days (14×)
- Absolute body weight, Median ([3]; study day 0): 27.5 g
- Relative body weight, Median ([3]; study day 0): 100.0%
- Absolute tumor volume: (a*b*b)/2, Median ([3]; study day 0): 117.2 mm3
- Relative tumor volume, Median ([3]; study day 0): 100.0%
- Relative body weight ([3]; study day 0, individual animals): 100.0%
- Absolute body weight ([3]; study day 0, individual animals, listed as G-026887): 27.2 g and 26.9 g and 27.3 g and 26.1 g and 29.4 g and 24.8 g and 31.2 g (2×) and 30.2 g and 27.6 g
- Relative tumor volume ([3]; study day 0): 100.0%
- Absolute tumor volume: (a*b*b)/2 ([3]; study day 0, listed as G-026887): 117.2 mm3 and 121.1 mm3 and 94.1 mm3 and 137.3 mm3 and 237.3 mm3 and 62.5 mm3 and 80.2 mm3 and 123.0 mm3 and 111.6 mm3 and 74.4 mm3 (2×) and 219.4 mm3 and 55.3 mm3 and 150.4 mm3 and 130.7 mm3
- Absolute body weight, Median ([3]; study day 3): 27.2 g
- Relative body weight, Median ([3]; study day 3): 97.9%
- Absolute tumor volume: (a*b*b)/2, Median ([3]; study day 3): 236.3 mm3
- Relative tumor volume, Median ([3]; study day 3): 211.7%
- Absolute body weight [3, 6]: 26.8 g and 27.2 g and 26.7 g and 25.6 g and 27.9 g and 24.7 g and 29.4 g and 29.2 g and 27.1 g and 29.6 g
- Relative body weight [3, 6]: 94.9% (2×) and 98.5% and 101.1% and 97.8% and 98.1% and 99.6% and 94.2% and 96.7% and 98.2%
- Absolute tumor volume: (a*b*b)/2 [3, 7]: 265.6 mm3 and 166.6 mm3 and 188.5 mm3 and 239.1 mm3 and 546.2 mm3 and 176.4 mm3 and 210.9 mm3 and 268.8 mm3 and 236.3 mm3 and 156.8 mm3 and 392.9 mm3 and 119.1 mm3 and 310.7 mm3 and 295.9 mm3 and 83.2 mm3
- Relative tumor volume [3, 7]: 111.8% and 226.6% and 137.6% and 200.4% and 174.1% and 230.2% and 282.2% and 263.0% and 218.5% and 211.7% and 210.9% and 179.1% and 215.3% and 206.6% and 226.4%
- Absolute body weight, Median ([3]; study day 7): 27.3 g
- Relative body weight, Median ([3]; study day 7): 96.5%
- Absolute tumor volume: (a*b*b)/2, Median ([3]; study day 7): 348.2 mm3
- Relative tumor volume, Median ([3]; study day 7): 293.3%
- Absolute body weight [3, 8]: 26.3 g (2×) and 27.4 g and 25.7 g and 27.1 g and 24.2 g and 28.9 g and 28.1 g and 27.6 g and 29.3 g
- Relative body weight [3, 8]: 93.9% and 96.7% and 101.9% and 96.3% and 98.5% and 92.2% and 97.6% and 92.6% and 93.0% and 100.0%
- Absolute tumor volume: (a*b*b)/2 [3, 9]: 392.9 mm3 and 325.1 mm3 and 261.6 mm3 and 445.5 mm3 and 689.1 mm3 and 289.1 mm3 and 348.2 mm3 and 344.4 mm3 and 455.1 mm3 and 253.1 mm3 and 560.0 mm3 and 216.6 mm3 and 352.5 mm3 and 383.3 mm3
- Relative tumor volume [3, 9]: 152.3% and 335.2% and 268.5% and 278.0% and 324.4% and 290.4% and 462.6% and 434.2% and 280.0% and 407.8% and 340.4% and 255.3% and 391.6% and 234.4%
- Absolute body weight, Median ([3]; study day 10): 27.3 g
- Relative body weight, Median ([3]; study day 10): 97.9%
- Absolute tumor volume: (a*b*b)/2, Median ([3]; study day 10): 406.6 mm3
- Relative tumor volume, Median ([3]; study day 10): 392.5%
- Absolute body weight [3, 10]: 26.7 g (2×) and 26.9 g and 25.6 g and 27.6 g and 25.3 g and 29.1 g (2×) and 28.6 g (2×)
- Relative body weight [3, 10]: 91.7% and 98.2% and 100.0% and 97.8% and 98.1% and 93.9% and 102.0% and 93.3% and 96.4% and 103.6%
- Absolute tumor volume: (a*b*b)/2 [3, 11]: 431.7 mm3 and 379.3 mm3 and 329.5 mm3 and 539.0 mm3 and 964.8 mm3 and 404.0 mm3 and 612.5 mm3 and 525.4 mm3 and 528.2 mm3 and 302.6 mm3 and 570.0 mm3 and 348.5 mm3 and 372.6 mm3 and 406.6 mm3
- Relative tumor volume [3, 11]: 269.9% and 368.3% and 313.3% and 350.2% and 392.5% and 406.6% and 646.4% and 763.8% and 427.1% and 473.3% and 406.9% and 259.8% and 630.2% and 247.8%
- Absolute body weight, Median ([3]; study day 14): 28.6 g
- Relative body weight, Median ([3]; study day 14): 99.5%
- Absolute tumor volume: (a*b*b)/2, Median ([3]; study day 14): 578.8 mm3
- Relative tumor volume, Median ([3]; study day 14): 580.3%
- Absolute body weight [3, 12]: 26.8 g and 27.2 g and 28.2 g and 25.5 g and 29.1 g and 25.8 g and 29.4 g and 30.2 g and 28.9 g and 30.3 g
- Relative body weight [3, 12]: 97.1% and 98.5% and 101.1% and 103.3% and 97.7% and 99.0% and 104.0% and 94.2% and 100.0% and 104.7%
- Absolute tumor volume: (a*b*b)/2 [3, 13]: 578.8 mm3 and 655.5 mm3 and 545.9 mm3 and 574.3 mm3 and 1411.2 mm3 and 581.0 mm3 and 1115.4 mm3 and 951.3 mm3 and 891.1 mm3 and 318.2 mm3 and 597.5 mm3 and 390.2 mm3 and 510.0 mm3 and 499.4 mm3
- Relative tumor volume [3, 13]: 620.2% and 493.8% and 541.3% and 580.3% and 418.3% and 594.7% and 929.7% and 1390.9% and 773.4% and 798.5% and 427.9% and 272.4% and 705.6% and 339.1%
- Absolute body weight, Median ([3]; study day 17): 28.8 g
- Relative body weight, Median ([3]; study day 17): 100.8%
- Absolute tumor volume: (a*b*b)/2, Median ([3]; study day 17): 742.6 mm3
- Relative tumor volume, Median ([3]; study day 17): 719.8%
- Absolute body weight [3, 14]: 27.2 g and 27.6 g and 28.5 g and 25.8 g (2×) and 29.5 g (2×) and 30.6 g and 29.0 g and 30.7 g
- Relative body weight [3, 14]: 98.4% and 100.0% and 102.6% and 104.4% and 98.9% and 100.3% and 104.0% and 94.6% and 101.3% and 105.1%
- Absolute tumor volume: (a*b*b)/2 [3, 15]: 705.7 mm3 and 742.6 mm3 and 701.1 mm3 and 841.5 mm3 and 1708.0 mm3 and 642.0 mm3 and 1229.4 mm3 and 1327.1 mm3 and 1247.1 mm3 and 426.5 mm3 and 778.8 mm3 and 520.5 mm3 and 606.4 mm3 and 758.4 mm3
- Relative tumor volume [3, 15]: 860.5% and 602.1% and 613.3% and 745.2% and 612.8% and 719.8% and 1027.1% and 1533.1% and 1078.9% and 1117.5% and 573.5% and 355.0% and 941.4% and 403.2%
- Absolute body weight, Median ([3]; study day 21): 29.0 g
- Relative body weight, Median ([3]; study day 21): 103.5%
- Absolute tumor volume: (a*b*b)/2, Median ([3]; study day 21): 958.8 mm3
- Relative tumor volume, Median ([3]; study day 21): 826.5%
- Absolute body weight [3, 16]: 28.6 g and 27.5 g and 29.3 g and 26.9 g and 31.1 g and 26.6 g and 30.6 g and 31.0 g and 28.7 g and 31.6 g
- Relative body weight [3, 16]: 101.3% and 105.1% and 102.2% and 107.3% (2×) and 103.1% and 105.8% and 98.1% and 102.6% and 104.0%
- Absolute tumor volume: (a*b*b)/2 [3, 17]: 893.3 mm3 and 1083.3 mm3 and 715.5 mm3 and 1030.4 mm3 and 1961.1 mm3 and 772.8 mm3 and 1472.3 mm3 and 1618.7 mm3 and 1461.9 mm3 and 550.0 mm3 and 958.8 mm3 and 609.2 mm3 and 712.9 mm3 and 874.7 mm3
- Relative tumor volume [3, 17]: 1511.3% and 762.1% and 894.7% and 760.5% and 750.4% and 826.5% and 1236.5% and 1836.0% and 1316.0% and 1309.9% and 739.6% and 437.1% and 1101.7% and 474.0%
- potency in biochemical enzyme assay [4]: maintains effective potency
- B-RAF:C-RAF heterodimers and C-RAF kinase activation [5]: induce B-RAF:C-RAF heterodimers and C-RAF kinase activation
